The record followed here is PMC8621770, “New Compounds with Bioisosteric Replacement of Classic Choline Kinase Inhibitors Show Potent Antiplasmodial Activity” (Pharmaceutics, 2021).

Structures are written as SMILES. Read-outs that look alike come from different tables or passages of the source. Bounds are passed on as bounds.

One data set addresses T1, PfCK (Plasmodium falciparum, UniProt Q8IM71).
T1 construct: A truncated form of PfCK (Δ79-440) featuring an N-terminal 6× His-tag; 6xHis (N); host or cells: Escherichia coli BL21 (DE3) Star
The data set can be described thus: Spectrophotometric coupled enzymatic assay for PfCK activity (substrate choline). The class given is biochemical. The note with it: for remaining activity at 25 µM: read-out: PfCK Fractional Activity at 25 µM; for IC50: IC50 PfCK b (compound concentration required to inhibit PfCK enzyme by 50%), substrate choline 4 mM, ATP 2 mM. As to the method: A truncated form of PfCK (Δ79-440) featuring an N-terminal 6× His-tag was purchased from Genescript (Piscataway, NJ, USA), cloned into a pET-28a vector and transformed into Escherichia coli BL21 (DE3) Star cells (Invitrogen, Carlsbad, CA, USA). The transformed bacteria were cultured in Luria-Bertani (LB) medium at 37 °C until OD600 = 0.6 and the expression was induced with 1 mM isopropyl β-D-1-thiogalactopyranoside (IPTG). The cell culture was grown overnight at 20 °C and 180 rpm. Cells were pelleted by centrifugation at 10,000 rpm, resuspended in 50 mM Tris/HCl pH 7.5, 500 mM NaCl, 0.2 mM phenylmethylsulphonyl fluoride (PMSF, Sigma Aldrich, St. Luis, MO, USA), DNase (Sigma Aldrich, St. Luis, MO, USA), 0.5 mM β-mercaptoethanol (Sigma Aldrich, St. Luis, MO, USA) and sonicated. Separation of the soluble from the insoluble fraction was obtained by centrifugation at 15,000 rpm and 4 °C. The target enzyme was purified by a two-step purification protocol. In the first step, the cell lysate was incubated for 45 min with Ni-NTA resin (Qiagen, Venlo, The Netherlands) in a gravity column. Then, the column was washed with 40 column volumes (CV) of 50 mM Tris/HCl pH 7.5, 300 mM NaCl, 10 mM imidazole and 1 CV of 50 mM Tris/HCl pH 7.5, 300 mM NaCl, 40 mM imidazole. Finally, the His-tagged enzyme was eluted from the column using a 50 mM Tris/HCl pH 7.5, 300 mM NaCl, 400 mM imidazole buffer. A subsequent size-exclusion chromatography step was implemented to further polish the sample using a HiPrep 26/60 Sephacryl 100 HR column (GE Healthcare, Little Chalfont, Buckinghamshire, UK) previously equilibrated with 20 mM Tris/HCl pH 7.5, 150 mM NaCl buffer. This second purification step afforded a pure protein sample. The protein production yield was estimated to be nearly 2.5 mg of recombinant enzyme per liter of bacterial culture.
A spectrophotometric 96-well plate assay for PfCK activity was established based on an assay previously described. The reaction mix was composed as follows: 100 mM Tris/HCl pH 7.5, 100 mM KCl, 10 mM MgCl2, 0.5 mM phosphoenolpyruvate, 0.25 mM NADH, 4 U of pyruvate kinase, 5 U lactate dehydrogenase, 2 mM ATP, 4 mM choline chloride and different concentrations of the selected compounds. All the necessary compounds for the assay were purchased from Sigma Aldrich (St. Luis, MO, USA) and the final assay volume was 200 μL. The enzymatic reaction was initiated by the addition of the enzyme at less than 10 nM concentration and the reaction rates were measured by monitoring the decrease in the absorbance at 340 nm for 20 min at room temperature using a Spark10M instrument (Tecan). Finally, the IC50 values for each compound were determined by plotting the enzyme fractional activity (f.a.) against the logarithm of compound concentration (log[I]). Curve-fitting was performed with a dose-response curve from Origin (OriginLab Corporation, Northampton, MA, USA), using the following equation: f.a.=1/1+10^logIC50−logI
All data points were collected in triplicate and the final dose-response curves were plotted with MATLAB (R2018a (9.4.0.813654), 2018, MathWorks, Natick, MA, USA). See curves in Figure S1 in Supplementary Materials.

The next data set concerns P. falciparum strain 3D7. The data set can be described thus: Antimalarial activity, P. falciparum lactate dehydrogenase growth inhibition assay. The class given is cell-based, Plasmodium falciparum. The note with it: for IC50: Plasmodium falciparum; for fold decrease in antimalarial activity with respect to the reference compounds BR-23 / BR-25: Fg-9, Fa-21, Fg-14 vs BR-23, Ff-1, Ff-7, Ff-3 vs BR-25; for fold difference in antimalarial activity, bipyridinyl vs biphenylic counterparts: Fg-13 and Fg-17 vs Fg-14 and Fa-21. As to the method: Parasites of the P. falciparum strain 3D7 were grown in fresh group 0 positive human erythrocytes, obtained from the Centro Regional de Transfusion Sanguínea-SAS (Granada, Spain) and suspended at 5% haematocrit in RPMI 1640 containing 2% human serum, 0.2% NaHCO3, 0.5% Albumax II, 150 μM hypoxanthine, and […] gentamicin. Flasks were incubated at 37 °C, under 5% CO2 and 95% air mixture. […] The stock culture was then diluted with complete medium and non-parasitized erythrocytes to yield a haematocrit of 2% and parasitemia of 0.25%. Stock solutions of the test drugs were prepared at an initial concentration of 200 mM in DMSO, serially diluted and dispensed into triplicate in 96-well plates to yield final concentrations ranging from 0.0039 to 2 μM. The final well volume was 200 μL with a final concentration of DMSO 0.001%. Each plate also included positive growth controls, where only medium were added, and negative growth controls with 100 nM of chloroquine. […] A multidrop dispenser was used to add 50 μL of synchronized parasite culture per well. After 72 h of growth in presence of test compounds, the plates were stored frozen at −20 °C for at least 24 h. Next, they were thawed at room temperature. Parasite growth inhibition assays and IC50 determinations were carried out following the P. falciparum lactate dehydrogenase assay where parasite viability is quantified by measuring LDH activity upon APAD+ addition, a cofactor that is specific to the Plasmodium enzyme. To evaluate LDH activity, 140 μL of freshly made reaction mix, containing 143 mM sodium L-lactate, 143 μM APAD, 178.75 μM NBT, 1 U/mL diaphorase, 0.7% Tween 20 and 100 mM Tris-HCl (pH 8.0) were dispensed into plates. After 10 min of incubation in the dark at room temperature, absorbance was measured at 630 nm with a vmax precision multiwell plate reader from Molecular Devices, by using the accompanying SOFT maxPro software for analysis.

[1] abbreviates: Erythrocyte, P. falciparum 3D7 in human erythrocytes, 72 h, LDH readout, read-out: IC50 a (In vitro IC50 values against P. falciparum).

T1 sequence (Q8IM71 entry or part of it): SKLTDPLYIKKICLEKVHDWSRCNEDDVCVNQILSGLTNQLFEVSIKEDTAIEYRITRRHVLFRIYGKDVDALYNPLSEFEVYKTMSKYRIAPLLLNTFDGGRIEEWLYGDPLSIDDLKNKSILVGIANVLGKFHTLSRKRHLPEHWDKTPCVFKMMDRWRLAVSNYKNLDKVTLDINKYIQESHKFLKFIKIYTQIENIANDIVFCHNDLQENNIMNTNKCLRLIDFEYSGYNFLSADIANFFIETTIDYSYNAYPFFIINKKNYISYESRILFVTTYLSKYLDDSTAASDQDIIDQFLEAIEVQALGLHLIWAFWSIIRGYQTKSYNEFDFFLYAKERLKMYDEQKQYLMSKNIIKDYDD

As usually defined, the IC50 is the concentration needed to halve the response being measured. One may read the melting point as the temperature of the solid-liquid transition. `[Br-].[Br-].c1cc2c(s1)c(N1CCCCC1)nc[n+]2Cc1ccc(OCCOc2ccc(C[n+]3cnc(N4CCCCC4)c4sccc43)cc2)cc1` [Fa-28, 1,1′-(((ethane-1,2-diylbis(oxy))bis(4,1-phenylene))bis(methylene))bis(4-(piperidin-1-yl)thieno[3,2-d]pyrimidin-1-ium) bromide] registered a melting point of 198 to 200 °C. For the same molecule, the remaining activity at 25 µM at PfCK was found to be 84.4 ± 7.53%. Also, the IC50 with P. falciparum strain 3D7 (setting [1]) came to 47.1 nM.

With `[Br-].[Br-].c1cc2c(N3CCCCC3)nc[n+](Cc3ccc(-c4ccc(C[n+]5cnc(N6CCCCC6)c6ccsc65)cn4)nc3)c2s1` [Fg-32, 1,1’-([2,2’-bipyridine]-5,5’-diylbis(methylene))bis(4-(piperidin-1-yl)thieno[2,3-d]pyrimidin-1-ium) bromide], the melting point was in the range of 267 to 269 °C. Besides, on PfCK, the remaining activity at 25 µM is 83.8 ± 9.53%. Also, the IC50 with P. falciparum strain 3D7 (setting [1]) is over 250 nM.

As to `[Br-].[Br-].c1cc2c(N3CCCC3)nc[n+](Cc3ccc(CCc4ccc(C[n+]5cnc(N6CCCC6)c6ccsc65)cc4)cc3)c2s1` [Fg-15, 1,1’-((ethane-1,2-diylbis(4,1-phenylene))bis(methylene))bis(4-(pyrrolidin-1-yl)thieno[2,3-d]pyrimidin-1-ium) bromide], the melting point fell in the range of 293 to 295 °C. Moreover, the remaining activity at 25 µM on PfCK was determined as 97.5 ± 9.22%. Besides, the IC50 with P. falciparum strain 3D7 (3D7, Erythrocyte, infected erythrocytes, P. falciparum, read-out: antimalarial activity (IC50), as given in the text) was about 11 nM. The half-maximal inhibitory concentration (IC50) in the data set on P. falciparum strain 3D7 (setting [1]) was 12.7 nM.

In turn, `[Br-].[Br-].c1cc2c(s1)c(N1CCCC1)nc[n+]2Cc1ccc(CCCCc2ccc(C[n+]3cnc(N4CCCC4)c4sccc43)cc2)cc1` [Ff-7, 1,1’-((butane-1,4-diylbis(4,1-phenylene))bis(methylene))bis(4-(pyrrolidin-1-yl)thieno[3,2-d]pyrimidin-1-ium) bromide] registered a melting point of 215 to 217 °C. At PfCK, the IC50 is 13.3 ± 3.82 µM and the remaining activity at 25 µM was 55 ± 4.07%. Further, in the data set on P. falciparum strain 3D7, the “fold decrease in antimalarial activity with respect to the reference compounds BR-23 / BR-25” value is given as 10 fold. Moreover, in the data set with P. falciparum strain 3D7 (setting [1]), the IC50 was 21.9 nM.

In turn, `[Br-].[Br-].c1cc2c(N3CCCCCC3)nc[n+](Cc3ccc(-c4ccc(C[n+]5cnc(N6CCCCCC6)c6ccsc65)cn4)nc3)c2s1` [Fg-20, 1,1’-([2,2’-bipyridine]-5,5’-diylbis(methylene))bis(4-(azepan-1-yl)thieno[2,3-d]pyrimidin-1-ium) bromide] returned a melting point of 289 to 291 °C. Besides, on PfCK, the remaining activity at 25 µM was 96.6 ± 13.1%. For the same molecule, the IC50 with P. falciparum strain 3D7 (setting [1]) amounted to 97.6 nM.

In turn, `[Br-].[Br-].c1cc2c(N3CCCCC3)nc[n+](Cc3ccc(CCc4ccc(C[n+]5cnc(N6CCCCC6)c6ccsc65)cc4)cc3)c2s1` [Fg-31, 1,1’-((ethane-1,2-diylbis(4,1-phenylene))bis(methylene))bis(4-(piperidin-1-yl)thieno[2,3-d]pyrimidin-1-ium) bromide] gave a melting point of 295 to 297 °C. Also, the remaining activity at 25 µM at PfCK is 87.4 ± 2.2%. Also, the IC50 in the data set with P. falciparum strain 3D7 (setting [1]) came to 34.7 nM.

`[Br-].[Br-].c1cc2c(s1)c(N1CCCC1)nc[n+]2Cc1ccc(CCc2ccc(C[n+]3cnc(N4CCCC4)c4sccc43)cc2)cc1` [Fg-16, 1,1’-((ethane-1,2-diylbis(4,1-phenylene))bis(methylene))bis(4-(pyrrolidin-1-yl)thieno[3,2-d]pyrimidin-1-ium) bromide] had a melting point of 231 to 233 °C. For the same molecule, on PfCK, inhibition was half-maximal at 26.5 ± 2.44 µM (IC50) and the remaining activity at 25 µM turned out to be 79.7 ± 10.3%. Further, the IC50 in the data set on P. falciparum strain 3D7 (setting [1]) worked out at 20.6 nM.

For `[Br-].[Br-].c1cc2c(s1)c(N1CCCC1)nc[n+]2Cc1ccc(-c2ccc(C[n+]3cnc(N4CCCC4)c4sccc43)cn2)nc1` [Fg-17, 1,1’-([2,2’-bipyridine]-5,5’-diylbis(methylene))bis(4-(pyrrolidin-1-yl)thieno[3,2-d]pyrimidin-1-ium) bromide], the melting point is 330 to 332 °C. In addition, the remaining activity at 25 µM on PfCK was 50.3 ± 7.88%. Also, the “fold difference in antimalarial activity, bipyridinyl vs biphenylic counterparts” value in the data set with P. falciparum strain 3D7 is given as over 10 fold. In the data set on P. falciparum strain 3D7 (setting [1]), the IC50 is 227 nM.

In the case of `[Br-].[Br-].c1cc2c(N3CCCC3)nc[n+](Cc3ccc(-c4ccc(C[n+]5cnc(N6CCCC6)c6ccsc65)cc4)cc3)c2s1` [Fg-14, 1,1’-([1,1’-biphenyl]-4,4’-diylbis(methylene))bis(4-(pyrrolidin-1-yl)thieno[2,3-d]pyrimidin-1-ium) bromide], the melting point was in the range of 300 to 302 °C. In addition, the “fold decrease in antimalarial activity with respect to the reference compounds BR-23 / BR-25” value with P. falciparum strain 3D7 amounted to 10 fold. The IC50 in the data set on P. falciparum strain 3D7 (setting [1]) was determined as 20.6 nM.

`[Br-].[Br-].c1cc2c(s1)c(N1CCCC1)nc[n+]2Cc1ccc(-c2ccc(C[n+]3cnc(N4CCCC4)c4sccc43)cc2)cc1` [Fa-21, 1,1’-([1,1’-biphenyl]-4,4’-diylbis(methylene))bis(4-(pyrrolidin-1-yl)thieno[3,2-d]pyrimidin-1-ium) bromide] showed a melting point of 312 to 315 °C. In addition, the “fold decrease in antimalarial activity with respect to the reference compounds BR-23 / BR-25” value in the data set with P. falciparum strain 3D7 is given as 10 fold. Further, the IC50 with P. falciparum strain 3D7 (setting [1]) came to 13.7 nM.

Take `[Br-].[Br-].c1cc2c(N3CCCC3)nc[n+](Cc3ccc(-c4ccc(C[n+]5cnc(N6CCCC6)c6ccsc65)cn4)nc3)c2s1` [Fg-13, 1,1’-([2,2’-bipyridine]-5,5’-diylbis(methylene))bis(4-(pyrrolidin-1-yl)thieno[2,3-d]pyrimidin-1-ium) bromide]: the melting point lay in the range of 238 to 240 °C. The remaining activity at 25 µM at PfCK is 99.1 ± 12%. In addition, the “fold difference in antimalarial activity, bipyridinyl vs biphenylic counterparts” value with P. falciparum strain 3D7 is given as over 10 fold. In the data set with P. falciparum strain 3D7 (setting [1]), the IC50 stood at 143 nM.

`[Br-].[Br-].c1cc2c(s1)c(N1CCCCCC1)nc[n+]2Cc1ccc(-c2ccc(C[n+]3cnc(N4CCCCCC4)c4sccc43)cn2)nc1` [Fa-26, 1,1’-([2,2’-bipyridine]-5,5’-diylbis(methylene))bis(4-(azepan-1-yl)thieno[3,2-d]pyrimidin-1-ium) bromide] registered a melting point of 310 to 312 °C. Further, the remaining activity at 25 µM on PfCK was 78 ± 8.13%. In addition, in the data set on P. falciparum strain 3D7 (setting [1]), the IC50 stood at 209 nM.
